Reference: patent US10806794B2, “Protease inhibitors having enhanced features” (priority 2008, dated 2020)
Values joined by “and” are separate entries in the source; they are usually repeats but may differ in a detail not shown here. Equal entries are not always repeated. Where two headings read alike, the source gives them in different places.

Tests used:
HIV-1RF = test: Anti-HIV cytoprotection in CEM-SS cells infected with HIV-1RF (XTT); assay type: cell-based
Protocol: To evaluate whether conjugated protease inhibitors retain the ability to protect against HIV-1 infection, CEM-SS cells infected with the RF strain of HIV-1 were treated with test compounds for six days, and then cell viability was monitored using the tetrazolium dye XTT. […] A value for Therapeutic Index (TI) was calculated as TC50/EC50.

PBMCs = test: PBMC macromolecule synthesis (tritiated precursor incorporation); assay type: cell-based, human; conditions: for Thymidine Incorporation (PBMC) TC50: DNA synthesis; for Uridine Incorporation (PBMC) TC50: RNA synthesis; for Leucine Incorporation (PBMC) TC50: protein synthesis
Protocol: Cellular macromolecule synthesis was evaluated using tritiated precursor incorporation assays. PBMCs (5×10^4 cells/well) were cultured in the presence or absence of test compound for 7 days at 37 C, 5% CO2 in a 96-well microtiter plate. On day 6 of the incubation, 1 uCi of [methyl-3H]-thymidine for DNA synthesis, [5-3H]-uridine for RNA synthesis, or [3,4,5-3H]-leucine for protein synthesis was added to compound-treated cells, and the plate was further incubated for 16 hours. The cells were transferred to a glass fiber filtermat using an Inotech cell harvester. The filtermats were washed with distilled water then sealed in a bag with scintillation fluid. Incorporated radioactivity was measured using a Wallac scintillation counter.

CYP2D6 = CYP2D6 (Homo sapiens (Human), UniProt P10635); test: CYP450 inhibition in human liver microsomes: CYP2D6
CYP1A2 = CYP1A2 (Homo sapiens (Human), UniProt P05177); test: CYP450 inhibition in human liver microsomes: CYP1A2
human monocytes = test: Toxicity in human monocytes in the absence of viral infection; conditions: monocyte/macrophages, absence of viral infection
Protocol: Fresh human monocytes were infected with the BaL strain of HIV-1 in the presence of test compounds. After seven days in culture, HIV-1 replication was evaluated by measurement of HIV-1 viral capsid protein (p24) in the tissue culture supernatant (Table 7). […] A TI was calculated as described above using TC50 values derived from cell toxicity data in response to test compounds in the absence of viral infection.

HIV-1Ba-L = test: Anti-HIV-1 activity in monocyte-derived dendritic cells (reverse transcriptase activity); assay type: cell-based
Protocol: Freshly separated human PBMCs from a single donor were suspended in DPBS at 4×10^6 cells/mL and incubated in a 75 cm^2 cell culture flask for 90 minutes at 37° C., 5% CO2. Non-adherent cells were removed by washing with DPBS. Differentiation to dendritic cells was induced by 7 day incubation in RPMI 1640 medium supplemented with 10% fetal bovine serum, 2 mmol/L L-glutamine, 25 mM HEPES, 100 Units/mL penicllin, 10 μg/mL streptomycin, 50 ng/mL recombinant human granulocyte-macrophage-colony stimulating factor (GM-CSF), and 50 ng/mL recombinant human Interleukin (IL)-4 at 37° C., 5% CO2. The cells were further incubated for two days in the same cytokine cocktail supplemented with 10 ng/mL lipopolysaccharide (LPS). The monocyte-derived dendritic cells were then suspended at 10×10^6 cells/mL in complete medium (RPMI 1640 medium supplemented with 10% fetal bovine serum, 2 mmol/L L-glutamine, 25 mM HEPES, 100 Units/mL penicllin, 10 μg/mL streptomycin) and infected for 2 h at 37 C, 5% CO2 with HIV-1Ba-L at MOI=50-150 TCID50. […] Compound diluted in complete medium was added to cells. After seven days in culture, HIV-1 replication was quantified by measuring HIV-1 reverse transcriptase activity in cell-free supernatants using a standard radioactive tritiated thymidine triphosphate (TTP) polymerization incorporation assay. For each reaction, 1 μL of TTP (1 Ci/mL) was combined with 4 μL of dH2O, 2.5 μL of poly rA and oligo dT (0.5 mg/mL and 1.7 Units/mL, respectively), and 2.5 μL reaction buffer (125 μL 1 mol/L EGTA, 125 μL dH2O, 125 μL 20% Triton X-100, 50 μL 1 mol/L Tris, pH 7.4, 50 μL 1 mol/L DTT, 40 μL 1 mol/L MgCl2), then 10 μL of the resulting mixture was combined with 15 µL of virus-containing supernatant in a round-bottom microtiter plate and the plate incubated at 37° C. in a humidified incubator for 90 minutes. Following incubation, 10 μL of the reaction volume was spotted onto a DEAD filter mat, then washed 5×5 min with 5% sodium phosphate buffer, 2×1 minute in distilled water, 2×1 minute in 70% ethanol, then air dried. The filter mat was incubated with Opti-Fluor O scintillation fluid, and radioactivity quantified using a Wallac 1450 Microbeta Trilux liquid scintillation counter.

[1] = tested on: monocyte-derived dendritic cells; test: Cytotoxicity in monocyte-derived dendritic cells (XTT); assay type: cell-based, human
Description: Cell viability is directly proportional to the amount of reduced XTT product formed.

HIV-1 HT/92/599 = test: HIV-1 reverse transcriptase activity after infection of fresh human PBMCs; assay type: cell-based; conditions: read-out: PBMC/HIV-1HT/92/599 EC50 ± SD; seven days, reverse transcriptase activity
Method in brief: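 PHA-P/IL-2-stimulated fresh human PBMCs infected with HIV-1; supernatant reverse transcriptase activity measured by tritiated TTP incorporation on poly rA/oligo dT, 90 min at 37° C. Toxicity from 7-day uninfected PBMC culture read by XTT; TI = TC50/EC50.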

[2] = Metabolic stability in human liver microsomes; conditions: human liver microsomes, 3 μM;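 as to t1/2: microsomal protein 0.5 mg/mL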
Method in brief: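 Substrate depletion: compounds at 3 μM final with pooled mixed-sex human liver microsomes (0.5 mg/mL) in 0.1 M phosphate pH 7.4 at 37 °C. Remaining parent quantified by LC-MS/MS.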

CYP3A4 = CYP3A4 (Homo sapiens (Human), UniProt P08684); test: CYP450 inhibition in human liver microsomes: CYP3A4;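 also: incubation at 37 °C started by adding 1 mM NADPH, with formation of the probe metabolite measured via LC-MS/MS or fluorescent detection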
[3] = six days, XTT, read-out: CEM-SS/HIV-1RF EC50 ± SD
[4] = dendritic cells, first determination, read-out: EC50 First
[5] = dendritic cells, mean of three, read-out: Mean EC50
[6] = dendritic cells, second determination, read-out: EC50 Second
[7] = dendritic cells, third determination, read-out: EC50 Third
[8] = read-out: CYP3A4 IC50 Midazolam, probe substrate midazolam
[9] = read-out: CYP3A4 IC50 Testosterone, probe substrate testosterone

CYP3A4, sequence (P08684 whole entry): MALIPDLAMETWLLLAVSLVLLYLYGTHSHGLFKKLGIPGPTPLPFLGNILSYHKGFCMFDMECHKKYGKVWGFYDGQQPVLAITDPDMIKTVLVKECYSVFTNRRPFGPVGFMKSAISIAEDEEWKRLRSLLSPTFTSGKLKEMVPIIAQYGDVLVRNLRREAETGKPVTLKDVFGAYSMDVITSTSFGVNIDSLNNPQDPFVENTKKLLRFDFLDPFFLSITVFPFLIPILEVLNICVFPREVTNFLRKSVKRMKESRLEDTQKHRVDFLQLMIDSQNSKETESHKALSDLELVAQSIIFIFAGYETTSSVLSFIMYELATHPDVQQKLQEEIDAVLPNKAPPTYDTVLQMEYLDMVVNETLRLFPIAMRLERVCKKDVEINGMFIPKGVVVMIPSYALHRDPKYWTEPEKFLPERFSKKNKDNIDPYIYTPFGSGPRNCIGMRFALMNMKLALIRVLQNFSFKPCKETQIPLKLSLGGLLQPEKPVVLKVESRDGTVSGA
CYP2D6, sequence (P10635 whole entry): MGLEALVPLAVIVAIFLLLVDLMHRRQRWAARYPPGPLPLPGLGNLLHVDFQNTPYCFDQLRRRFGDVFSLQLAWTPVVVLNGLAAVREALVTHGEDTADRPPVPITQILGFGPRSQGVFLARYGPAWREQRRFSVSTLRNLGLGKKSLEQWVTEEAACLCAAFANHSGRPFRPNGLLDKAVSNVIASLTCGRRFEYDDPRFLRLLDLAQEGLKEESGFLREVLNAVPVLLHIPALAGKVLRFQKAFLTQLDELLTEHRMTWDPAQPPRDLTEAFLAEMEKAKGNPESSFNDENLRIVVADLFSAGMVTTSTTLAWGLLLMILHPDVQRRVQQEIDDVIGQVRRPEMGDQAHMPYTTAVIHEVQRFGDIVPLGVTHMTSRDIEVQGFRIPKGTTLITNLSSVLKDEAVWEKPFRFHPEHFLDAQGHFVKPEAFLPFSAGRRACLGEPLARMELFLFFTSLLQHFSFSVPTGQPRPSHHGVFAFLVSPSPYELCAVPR
CYP1A2, sequence (P05177 whole entry): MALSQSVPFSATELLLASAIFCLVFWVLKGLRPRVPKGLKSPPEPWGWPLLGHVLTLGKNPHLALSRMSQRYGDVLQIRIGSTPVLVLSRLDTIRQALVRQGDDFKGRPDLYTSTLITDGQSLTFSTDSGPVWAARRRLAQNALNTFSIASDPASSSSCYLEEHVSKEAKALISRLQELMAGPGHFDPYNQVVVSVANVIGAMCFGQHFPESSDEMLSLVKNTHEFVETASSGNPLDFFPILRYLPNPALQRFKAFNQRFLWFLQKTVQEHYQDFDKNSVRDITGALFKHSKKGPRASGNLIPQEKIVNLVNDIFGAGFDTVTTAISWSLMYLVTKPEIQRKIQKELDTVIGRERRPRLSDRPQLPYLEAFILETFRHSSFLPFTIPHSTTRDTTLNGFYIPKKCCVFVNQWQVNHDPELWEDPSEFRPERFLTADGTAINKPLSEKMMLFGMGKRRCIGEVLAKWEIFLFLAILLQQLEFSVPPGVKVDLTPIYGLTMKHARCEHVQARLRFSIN

COC(=O)N[C@H](C(=O)N[C@@H](Cc1ccccc1)[C@@H](O)CN(Cc1ccc(-c2ccccn2)cc1)NC(=O)[C@@H](NC(=O)OC)C(C)(C)C)C(C)(C)C [Atazanavir, reference compound]
EC50 (HIV-1RF; [3]): 15 ± 14 nM | Thymidine Incorporation (PBMC) TC50 (PBMCs): 81100 nM | Uridine Incorporation (PBMC) TC50 (PBMCs): 87200 nM | Leucine Incorporation (PBMC) TC50 (PBMCs): 94700 nM | IC50 (CYP2D6): 14900 nM | IC50 (CYP1A2): 20600 nM

CC(C)CN(C[C@@H](O)[C@H](Cc1ccccc1)NC(=O)O[C@H]1CO[C@H]2OCC[C@H]21)S(=O)(=O)c1ccc(N)cc1 [Darunavir, reference compound]
EC50 (HIV-1RF; Human immunodeficiency virus 1, CEM-SS, 144 h, read-out: CEM-SS/HIV-1RF EC50 ± SD, six days, XTT): < 0.7 nM | EC50 (HIV-1RF; read-out: CEM-SS/HIV-1RF EC50 ± SD, six days, XTT): < 0.66 nM and 1 nM | TC50 (human monocytes): >200000 nM | EC50 (HIV-1Ba-L; Human immunodeficiency virus 1, Dendritic cell, read-out: EC50 First, dendritic cells, first determination): 2 nM | EC50 (HIV-1Ba-L; Human immunodeficiency virus 1, Dendritic cell, read-out: EC50 Second, dendritic cells, second determination): 3 nM | EC50 (HIV-1Ba-L; Human immunodeficiency virus 1, Dendritic cell, read-out: EC50 Third, dendritic cells, third determination): 3 nM | EC50 (HIV-1Ba-L; Human immunodeficiency virus 1, Dendritic cell, read-out: Mean EC50, dendritic cells, mean of three): 2.7 nM | TC50 [1]: >200000 nM | Thymidine Incorporation (PBMC) TC50 (PBMCs): 184300 nM | Uridine Incorporation (PBMC) TC50 (PBMCs): 189300 nM | Leucine Incorporation (PBMC) TC50 (PBMCs): 258300 nM

COCCOCCOCCOc1ccc(C[C@H](NC(=O)O[C@H]2CO[C@H]3OCC[C@H]32)C(O)CN(CC(C)C)S(=O)(=O)c2ccc(N)cc2)cc1 (some centres unmarked) [mPEG3-O-Darunavir]
EC50 (HIV-1 HT/92/599): 27 ± 6 nM | TC50 (human monocytes): >200000 nM | CLint ± SEM [2]: 77.4 ± 9.14 μL/min/mg protein | t1/2 [2]: 17.9 min | EC50 (HIV-1Ba-L; [4]): 0.17 nM | EC50 (HIV-1Ba-L; [5]): 5.9 nM | EC50 (HIV-1Ba-L; [6]): 0.84 nM | EC50 (HIV-1Ba-L; [7]): 16.7 nM | TC50 [1]: >200000 nM | Thymidine Incorporation (PBMC) TC50 (PBMCs): 109600 nM | Uridine Incorporation (PBMC) TC50 (PBMCs): 139400 nM | Leucine Incorporation (PBMC) TC50 (PBMCs): 218900 nM | IC50 (CYP3A4; [8]): 2590 nM | IC50 (CYP3A4; [9]): 4900 nM

COCCOCCOCCOCCOCCNc1ccc(S(=O)(=O)N(CC(C)C)CC(O)[C@H](Cc2ccccc2)NC(=O)O[C@H]2CO[C@H]3OCC[C@H]32)cc1 (some centres unmarked) [mPEG5-N-Darunavir]
EC50 (HIV-1 HT/92/599): < 20 nM and 33 nM | TC50 (human monocytes): >200000 nM | CLint ± SEM [2]: 440 ± 19.0 μL/min/mg protein | t1/2 [2]: 3.15 min | EC50 (HIV-1Ba-L; [4]): 8 nM | EC50 (HIV-1Ba-L; [5]): 16.7 nM | EC50 (HIV-1Ba-L; [6]): 2 nM | EC50 (HIV-1Ba-L; [7]): 40 nM | TC50 [1]: >200000 nM | Thymidine Incorporation (PBMC) TC50 (PBMCs): 41300 nM | Uridine Incorporation (PBMC) TC50 (PBMCs): 73200 nM | Leucine Incorporation (PBMC) TC50 (PBMCs): 98500 nM | IC50 (CYP3A4; [8]): 2700 nM | IC50 (CYP3A4; [9]): 4000 nM

COCCOCCOCCOCCOCCOc1ccc(C[C@H](NC(=O)O[C@H]2CO[C@H]3OCC[C@H]32)C(O)CN(CC(C)C)S(=O)(=O)c2ccc(N)cc2)cc1 (some centres unmarked) [mPEG5-O-Darunavir]
EC50 (HIV-1 HT/92/599): 90 ± 8 nM | TC50 (human monocytes): >200000 nM | CLint ± SEM [2]: 198 ± 22.1 μL/min/mg protein | t1/2 [2]: 7.00 min | EC50 (HIV-1Ba-L; [4]): 60 nM | EC50 (HIV-1Ba-L; [5]): 56.7 nM | EC50 (HIV-1Ba-L; [6]): 60 nM | EC50 (HIV-1Ba-L; [7]): 50 nM | TC50 [1]: >200000 nM | Thymidine Incorporation (PBMC) TC50 (PBMCs): >400000 nM | Uridine Incorporation (PBMC) TC50 (PBMCs): >400000 nM | Leucine Incorporation (PBMC) TC50 (PBMCs): >400000 nM | IC50 (CYP3A4; [8]): > 2500 nM | IC50 (CYP3A4; [9]): > 25000 nM

COCCOCCOCCOCCOCCOCCOCCNc1ccc(S(=O)(=O)N(CC(C)C)CC(O)[C@H](Cc2ccccc2)NC(=O)O[C@H]2CO[C@H]3OCC[C@H]32)cc1 (some centres unmarked) [mPEG7-N-Darunavir]
EC50 (HIV-1RF; [3]): 14 nM and 11 nM | EC50 (HIV-1 HT/92/599): 73 ± 12 nM | TC50 (human monocytes): >200000 nM | CLint ± SEM [2]: 356 ± 7.74 μL/min/mg protein | t1/2 [2]: 3.89 min | EC50 (HIV-1Ba-L; [4]): 70 nM | EC50 (HIV-1Ba-L; [5]): 63.3 nM | EC50 (HIV-1Ba-L; [6]): 40 nM | EC50 (HIV-1Ba-L; [7]): 80 nM | TC50 [1]: >200000 nM | IC50 (CYP3A4; [8]): 5400 nM | IC50 (CYP3A4; [9]): 12900 nM
